Assays:
Format in all cases: in vivo
[1] = test system: Smaller Tea Tortrix (Adoxophyes sp.); assay: Insecticidal effect on smaller tea tortrix (Test Example 3): tea leaves immersed in 50 ppm liquid chemical; conditions: smaller tea tortrix (Adoxophyes sp.) larvae, 8 days after inoculation, 25° C., humidity 70%
Method in brief: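 Tea leaves dipped about 30 seconds in 50 ppm compound preparation, air-dried, then infested with larvae and held at 25° C and 70% humidity. Dead and alive counted 8 days after inoculation; triplicate groups of 10 insects.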

[2] = test system: Common Cutworm (Spodoptera litura); assay: Insecticidal effect on common cutworm (Test Example 2): cabbage leaf piece immersed in 50 ppm liquid chemical; conditions: common cutworm (Spodoptera litura) second-instar larvae, 8 days after inoculation, 25° C.
Method in brief: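 Cabbage leaf pieces (cv. Shikidori) dipped ~30 s in formulated compound at 50 ppm and air-dried. Second-instar larvae added, kept at 25° C. Dead and alive counted at 8 days to give % mortality, scored against a criterion scale; three groups of 10 insects.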

[3] = test system: Diamond Back Moth (Plutella xylostella); assay: Insecticidal effect on diamond back moth (Test Example 1): egg-bearing Chinese cabbage seedling immersed in 50 ppm liquid chemical
Method in brief: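 Seedlings bearing 2-day-old eggs dipped about 30 s in 50 ppm formulated compound, air-dried, held at 25° C. Hatched larvae counted 6 days after immersion; mortality calculated and graded by criterion. Triplicate groups of 10 insects.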

Structure (SMILES)	Insecticidal effect (mortality grade), Test Example 3 [1]	Insecticidal effect (mortality grade), Test Example 2 [2]	Insecticidal effect (mortality grade), Test Example 1 [3]
CCNS(=O)(=O)CC(C)NC(=O)c1ccccc1C(=O)Nc1ccc(C(F)(C(F)(F)F)C(F)(F)F)cc1C (stereo not drawn) [1-207]	E (Mortality less than 50%)	A (Mortality 100%)	A (Mortality 100%)
CCN(CC)S(=O)(=O)CC(C)(C)NC(=O)c1ccccc1C(=O)Nc1ccc(C(F)(C(F)(F)F)C(F)(F)F)cc1C [1-208]	A (Mortality 100%)	E (Mortality less than 50%)	A (Mortality 100%)
CCN(CC)S(=O)(=O)CC(C)NC(=O)c1c(Cl)cccc1C(=O)Nc1ccc(C(F)(C(F)(F)F)C(F)(F)F)cc1C (stereo not drawn) [1-211]	A (Mortality 100%)	A (Mortality 100%)	A (Mortality 100%)
CCNS(=O)(=O)CC(C)NC(=O)c1c(Br)cccc1C(=O)Nc1ccc(C(F)(C(F)(F)F)C(F)(F)F)cc1C (stereo not drawn) [1-212]	A (Mortality 100%)	A (Mortality 100%)	A (Mortality 100%)
Cc1cc(C(F)(C(F)(F)F)C(F)(F)F)ccc1NC(=O)c1cccc(Br)c1C(=O)NC(C)CS(=O)(=O)N(C)C (stereo not drawn) [1-213]	A (Mortality 100%)	A (Mortality 100%)	A (Mortality 100%)
CCN(CC)S(=O)(=O)CC(C)NC(=O)c1c(Br)cccc1C(=O)Nc1ccc(C(F)(C(F)(F)F)C(F)(F)F)cc1C (stereo not drawn) [1-214]	A (Mortality 100%)	A (Mortality 100%)	A (Mortality 100%)
CCCNS(=O)(=O)CC(C)NC(=O)c1c(Br)cccc1C(=O)Nc1ccc(C(F)(C(F)(F)F)C(F)(F)F)cc1C (stereo not drawn) [1-215]	A (Mortality 100%)	A (Mortality 100%)	A (Mortality 100%)
Cc1cc(C(F)(C(F)(F)F)C(F)(F)F)ccc1NC(=O)c1cccc(Br)c1C(=O)NC(C)CS(=O)(=O)NC(C)C (stereo not drawn) [1-216]	A (Mortality 100%)	A (Mortality 100%)	A (Mortality 100%)
CCCCNS(=O)(=O)CC(C)NC(=O)c1c(Br)cccc1C(=O)Nc1ccc(C(F)(C(F)(F)F)C(F)(F)F)cc1C (stereo not drawn) [1-217]	A (Mortality 100%)	A (Mortality 100%)	A (Mortality 100%)
Cc1cc(C(F)(C(F)(F)F)C(F)(F)F)ccc1NC(=O)c1cccc(Br)c1C(=O)NC(C)CS(=O)(=O)NCc1ccccc1 (stereo not drawn) [1-218]	A (Mortality 100%)	A (Mortality 100%)	A (Mortality 100%)
CCN(CC)S(=O)(=O)CC(C)(C)NC(=O)c1c(Br)cccc1C(=O)Nc1ccc(C(F)(C(F)(F)F)C(F)(F)F)cc1C [1-219]	A (Mortality 100%)	A (Mortality 100%)	A (Mortality 100%)
CCNS(=O)(=O)CC(C)NC(=O)c1c(I)cccc1C(=O)Nc1ccc(Cl)c(Cl)c1Cl (stereo not drawn) [1-266]	E (Mortality less than 50%)	C (Mortality 89–80%)	A (Mortality 100%)
CCN(CC)S(=O)(=O)CC(C)NC(=O)c1c(I)cccc1C(=O)Nc1ccc(Cl)c(Cl)c1Cl (stereo not drawn) [1-267]	E (Mortality less than 50%)	C (Mortality 89–80%)	A (Mortality 100%)
CCN(CC)S(=O)(=O)CC(C)(C)NC(=O)c1c(I)cccc1C(=O)Nc1ccc(Cl)c(Cl)c1Cl [1-268]	A (Mortality 100%)	A (Mortality 100%)	A (Mortality 100%)
CCNS(=O)(=O)CC(C)NC(=O)c1c(I)cccc1C(=O)Nc1ccc(OC(F)(F)F)cc1C (stereo not drawn) [1-275]	E (Mortality less than 50%)	E (Mortality less than 50%)	A (Mortality 100%)
CCN(CC)S(=O)(=O)CC(C)NC(=O)c1c(I)cccc1C(=O)Nc1ccc(OC(F)(F)F)cc1C (stereo not drawn) [1-276]	E (Mortality less than 50%)	E (Mortality less than 50%)	A (Mortality 100%)
CCN(CC)S(=O)(=O)CC(C)(C)NC(=O)c1c(I)cccc1C(=O)Nc1ccc(OC(F)(F)F)cc1C [1-277]	A (Mortality 100%)	A (Mortality 100%)	A (Mortality 100%)
CCN(CC)S(=O)(=O)CC(C)NC(=O)c1c(I)cccc1C(=O)Nc1ccc(OC(F)(F)F)cc1Cl (stereo not drawn) [1-285]	E (Mortality less than 50%)	C (Mortality 89–80%)	A (Mortality 100%)
CCN(CC)S(=O)(=O)CC(C)(C)NC(=O)c1c(I)cccc1C(=O)Nc1ccc(OC(F)(F)F)cc1Cl [1-286]	E (Mortality less than 50%)	A (Mortality 100%)	A (Mortality 100%)
CCN(CC)S(=O)(=O)CC(C)NC(=O)c1c(I)cccc1C(=O)Nc1ccc(C(F)(F)C(F)(F)F)cc1C (stereo not drawn) [1-301]	A (Mortality 100%)	A (Mortality 100%)	A (Mortality 100%)
CCN(CC)S(=O)(=O)CC(C)(C)NC(=O)c1c(I)cccc1C(=O)Nc1ccc(C(F)(F)C(F)(F)F)cc1C [1-302]	A (Mortality 100%)	A (Mortality 100%)	A (Mortality 100%)
Cc1cc(C(F)(F)C(F)(F)F)ccc1NC(=O)c1cccc(I)c1C(=O)NC(C)(C)CS(=O)(=O)NCc1ccccc1 [1-303]	A (Mortality 100%)	A (Mortality 100%)	A (Mortality 100%)
CSCCNS(=O)(=O)CC(C)(C)NC(=O)c1c(I)cccc1C(=O)Nc1ccc(C(F)(F)C(F)(F)F)cc1C [1-304]	A (Mortality 100%)	A (Mortality 100%)	A (Mortality 100%)
Cc1cc(C(F)(F)C(F)(F)F)ccc1NC(=O)c1cccc(I)c1C(=O)NC(C)(C)CS(=O)(=O)NCC[S+](C)[O-] (stereo not drawn) [1-305]	A (Mortality 100%)	A (Mortality 100%)	A (Mortality 100%)
Cc1cc(C(F)(F)C(F)(F)F)ccc1NC(=O)c1cccc(I)c1C(=O)NC(C)(C)CS(=O)(=O)NCCS(C)(=O)=O [1-306]	A (Mortality 100%)	A (Mortality 100%)	A (Mortality 100%)
CCSCCNS(=O)(=O)CC(C)(C)NC(=O)c1c(I)cccc1C(=O)Nc1ccc(C(F)(F)C(F)(F)F)cc1C [1-307]	A (Mortality 100%)	A (Mortality 100%)	A (Mortality 100%)
CC[S+]([O-])CCNS(=O)(=O)CC(C)(C)NC(=O)c1c(I)cccc1C(=O)Nc1ccc(C(F)(F)C(F)(F)F)cc1C (stereo not drawn) [1-308]	A (Mortality 100%)	A (Mortality 100%)	A (Mortality 100%)
CCS(=O)(=O)CCNS(=O)(=O)CC(C)(C)NC(=O)c1c(I)cccc1C(=O)Nc1ccc(C(F)(F)C(F)(F)F)cc1C [1-309]	A (Mortality 100%)	A (Mortality 100%)	A (Mortality 100%)

Source: US7161032B2, “Sulfonamide derivatives, insecticides for agricultural and horticultural use, and usage thereof” (Nihon Nohyaku Co., Ltd., priority 2002, dated 2007)
